From patent publication US20260130879A1 (IMMUNIC AG, priority 2023, published 2026)

Assays:
human Nurr1 = human Nurr1 (Homo sapiens, UniProt P43354); experiment: Hybrid Gal4-Nurr1 reporter gene assay in HEK293T cells
Experimental: Nurr1 modulation was determined in a Gal4 hybrid reporter gene assays in HEK293T cells (German Collection of Microorganisms and Cell Culture GmbH, DSMZ) using pFR-Luc (Stratagene, La Jolla, CA, USA; reporter), pRL-SV40 (Promega, Madison, WI, USA: internal control) and pFA-CMV-hNurr1-LBD, coding for the hinge region and ligand binding domain of the canonical isoform of human Nurr1. Cells were cultured in Dulbecco's modified Eagle's medium (DMEM), high glucose supplemented with 10% fetal calf serum (FCS), sodium pyruvate (1 mM), penicillin (100 U/mL), and streptomycin (100 μg/mL) at 37° C., and 5% CO2 and seeded in 96-well plates (3×10+ cells/well). […] Firefly luminescence was divided by Renilla luminescence and multiplied by 1000 resulting in relative light units (RLU) to normalize for transfection efficiency and cell growth. Fold activation was obtained by dividing the mean RLU of test compound by the mean RLU of the untreated control. All samples were tested in at least three biologically independent experiments in duplicates. For dose-response curve fitting and calculation of EC50 values, the equation “[Agonist] versus response (three parameters)” was used in GraphPad Prism (version 7.00, GraphPad Software, La Jolla, CA, USA).
Similarly as described in Part A, the Nurr1 modulation was determined in a Gal4 hybrid reporter gene assay at a fixed concentration of 3 μM.

hDHODH = target: T1, hDHODH (Homo sapiens, UniProt Q02127); experiment: in vitro inhibition of hDHODH; type: biochemical
T1 construct: measured using an N-terminally truncated recombinant hDHODH enzyme
Experimental: The in vitro inhibition of hDHODH was measured using an N-terminally truncated recombinant hDHODH enzyme. Briefly, the hDHODH concentration was adjusted in a way that an average slope of approximately 0.2 AU/min served as the positive control (e.g., without inhibitor). The assay mixture contained 60 μM 2,6-dichloroindophenol, 50 μM decylubiquinone and 100 μM dihydroorotate. The hDHODH enzyme with or without at least six different concentrations of the compounds was added and measurements were performed in 50 mM TrisHCl, 150 mM KCl and 0.1% Triton X-100 at pH 8.0 and at 30° C. The reaction was started by adding dihydroorotate and measuring the absorption at 600 nm for 2 min. For the determination of the IC50 values, each data point was recorded in triplicate.

Chain of human Nurr1 (P43354 360-595 limits assumed): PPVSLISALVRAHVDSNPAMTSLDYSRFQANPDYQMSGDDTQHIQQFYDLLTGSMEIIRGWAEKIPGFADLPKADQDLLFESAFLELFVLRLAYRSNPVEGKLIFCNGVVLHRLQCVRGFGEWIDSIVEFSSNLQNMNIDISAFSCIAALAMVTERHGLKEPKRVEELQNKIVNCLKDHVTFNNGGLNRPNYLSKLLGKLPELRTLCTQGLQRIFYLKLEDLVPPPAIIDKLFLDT
T1 sequence (Q02127 29-395): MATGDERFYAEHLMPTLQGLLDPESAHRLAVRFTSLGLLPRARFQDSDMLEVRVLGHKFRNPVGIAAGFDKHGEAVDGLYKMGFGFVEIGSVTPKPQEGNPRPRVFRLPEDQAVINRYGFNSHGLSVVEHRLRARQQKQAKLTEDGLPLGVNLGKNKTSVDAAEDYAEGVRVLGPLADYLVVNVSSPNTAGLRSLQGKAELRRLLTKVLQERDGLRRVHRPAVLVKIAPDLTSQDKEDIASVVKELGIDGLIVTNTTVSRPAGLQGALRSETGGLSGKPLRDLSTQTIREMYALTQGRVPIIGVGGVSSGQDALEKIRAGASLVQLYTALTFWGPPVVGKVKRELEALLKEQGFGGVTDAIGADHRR

Structure (SMILES)	Fold Activation @ 3 μM (human Nurr1)	Fold Activation @ 0.3 μM (human Nurr1)	EC50 (human Nurr1)	Nurr1 agonism max. fold activation (range) (human Nurr1)	IC50 (hDHODH)
[2H]C([2H])([2H])Oc1cccc(-c2c(F)c(F)c(NC(=O)c3cscc3C(=O)O)c(F)c2F)c1 [6/3]	++ (++: ≥2-fold to <3-fold)				
[2H]c1cc([2H])c(-c2c(F)c(F)c(NC(=O)c3ccsc3C(=O)O)c(F)c2F)c([2H])c1OC(F)(F)F [2/25]	++ (++: ≥2-fold to <3-fold)	+++ (+++: ≥3-fold)			
[2H]C([2H])([2H])Oc1cccc(-c2cc(F)c(NC(=O)C3=C(C(=O)NOCC)CCC3)c(F)c2)c1 [2/18]			1000 to 10000 nM	++ (++: ≥2-fold to <3-fold)	
[2H]C(F)(F)Oc1cccc(-c2ccc(NC(=O)C3=C(C(=O)O)CCC3)c(F)c2)c1 [2/2]			100 to 1000 nM	+++ (+++: ≥3-fold)	1000 to 10000 nM
[2H]C([2H])([2H])Oc1cccc(-c2cc(F)c(NC(=O)C3=C(C(=O)NS(=O)(=O)C(F)F)CCC3)c(F)c2)c1 [2/22]			1000 to 10000 nM	++ (++: ≥2-fold to <3-fold)	
[2H]C([2H])([2H])Oc1cccc(-c2c(F)c(F)c(NC(=O)c3ccsc3C(=O)NCC(F)F)c(F)c2F)c1 [6/41]		+ (+: ≥1.3-fold to <2-fold)			
[2H]C([2H])([2H])Oc1cccc(-c2c(F)c(F)c(NC(=O)c3ccccc3C(=O)O)c(F)c2F)c1 [6/20]			< 100 nM		< 100 nM
C#CCOc1cccc(-c2ccc(NC(=O)c3cscc3C(=O)O)c(F)c2)c1 [6/52]			< 100 nM	++ (++: ≥2-fold to <3-fold)	100 to 1000 nM
[2H]C([2H])([2H])Oc1cccc(-c2c(F)c(F)c(NC(=O)c3ccsc3C(=O)NCCO)c(F)c2F)c1 [6/40]			1000 to 10000 nM	+ (+: ≥1.3-fold to <2-fold)	> 10000 nM
[2H]C([2H])([2H])Oc1cccc(-c2cc(F)c(NC(=O)C3=C(/C(N)=N/O)CCC3)c(F)c2)c1 [2/20]			100 to 1000 nM	++ (++: ≥2-fold to <3-fold)	
[2H]C([2H])([2H])Oc1cccc(-c2c(F)c(F)c(NC(=O)c3ccsc3C(=O)NCC#N)c(F)c2F)c1 [6/39]			1000 to 10000 nM	++ (++: ≥2-fold to <3-fold)	100 to 1000 nM
[2H]C([2H])([2H])Oc1cccc(-c2c(F)c(F)c(NC(=O)c3ccsc3C(N)=O)c(F)c2F)c1 [6/14]			100 to 1000 nM	+ (+: ≥1.3-fold to <2-fold)	1000 to 10000 nM
C#CCOc1cccc(-c2c(F)c(F)c(NC(=O)c3ccsc3C(=O)O)c(F)c2F)c1 [6/17]	+++ (+++: ≥3-fold)				
C#CCOc1cccc(-c2c(F)c(F)c(NC(=O)c3ccsc3C(=O)NC)c(F)c2F)c1 [6/18]	+ (+: ≥1.3-fold to <2-fold)				
[2H]C([2H])([2H])Oc1cccc(-c2c(F)c(F)c(NC(=O)C3=C(C(=O)O)CC(F)(F)C3)c(F)c2F)c1 [6/1]	++ (++: ≥2-fold to <3-fold)				
[2H]c1cc([2H])c(-c2ccc(NC(=O)C3=C(C(=O)O)CCC3)c(F)c2)c([2H])c1O [2/4]			100 to 1000 nM	+ (+: ≥1.3-fold to <2-fold)	
[2H]C([2H])([2H])Oc1cccc(-c2cc(F)c(NC(=O)C3=C(C(=O)NS(=O)(=O)C4(C)CC4)CCC3)c(F)c2)c1 [2/21]			1000 to 10000 nM	++ (++: ≥2-fold to <3-fold)	
[2H]C([2H])([2H])Oc1cccc(-c2ccc(NC(=O)c3cscc3C(N)=O)cc2)c1 [6/53]			100 to 1000 nM	+ (+: ≥1.3-fold to <2-fold)	> 10000 nM
C#CCOc1cccc(-c2ccc(NC(=O)c3cscc3C(=O)NCC)c(F)c2)c1 [6/58]			1000 to 10000 nM	+ (+: ≥1.3-fold to <2-fold)	> 10000 nM
[2H]C([2H])([2H])Oc1ccccc1-c1c(F)c(F)c(NC(=O)c2cscc2C(=O)O)c(F)c1F [6/5]			< 100 nM	+ (+: ≥1.3-fold to <2-fold)	< 10 nM
[2H]c1c([2H])c([2H])c(-c2c(F)c(F)c(NC(=O)C3=C(C(N)=O)CC(F)(F)C3)c(F)c2F)c([2H])c1[2H] [6/46]			100 to 1000 nM		1000 to 10000 nM
C#CCOc1cccc(-c2ccc(NC(=O)c3cscc3C(N)=O)cc2)c1 [6/54]			1000 to 10000 nM	+ (+: ≥1.3-fold to <2-fold)	> 10000 nM

Structure (SMILES)	Fold Activation @ 3 μM (human Nurr1)	Fold Activation @ 0.3 μM (human Nurr1)	EC50 (human Nurr1)	Nurr1 agonism max. fold activation (range) (human Nurr1)	IC50 (hDHODH)
[2H]C([2H])([2H])Oc1cccc(-c2ccc(N(C)C(=O)C3=C(C(=O)O)CCC3)c(F)c2)c1 [reference compound]			> 10000 nM		
[2H]C([2H])([2H])Oc1cccc(-c2cc(F)c(NC(=O)C3=C(C(=O)NOCCO)CCC3)c(F)c2)c1 [2/24]			1000 to 10000 nM	+ (+: ≥1.3-fold to <2-fold)	
[2H]C([2H])([2H])Oc1ccccc1-c1c(F)c(F)c(NC(=O)C2=C(C(=O)O)CCC2)c(F)c1F [2/27]	+++ (+++: ≥3-fold)				
[2H]C([2H])([2H])Oc1cccc(-c2c(F)c(F)c(NC(=O)c3c(C(=O)O)sc(C)c3C)c(F)c2F)c1 [6/13]			< 100 nM	++ (++: ≥2-fold to <3-fold)	< 100 nM
[2H]C([2H])([2H])Oc1cccc(-c2cc(F)c(NC(=O)C3=C(C(=O)NOCCF)CCC3)c(F)c2)c1 [2/23]			100 to 1000 nM	+ (+: ≥1.3-fold to <2-fold)	
[2H]C([2H])([2H])Oc1cccc(-c2c(F)c(F)c(NC(=O)c3ccsc3C(=O)O)c(F)c2F)c1 [6/2]	++ (++: ≥2-fold to <3-fold)				
[2H]C([2H])([2H])Oc1ccccc1-c1c(F)c(F)c(NC(=O)C2=C(C(=O)O)CSC2)c(F)c1F [6/7]	++ (++: ≥2-fold to <3-fold)				
[2H]C([2H])([2H])Oc1cccc(-c2cc(F)c(NC(=O)c3ccsc3C(=O)O)c(F)c2)c1 [2/26]	+ (+: ≥1.3-fold to <2-fold)				
C#CCOc1cccc(-c2ccc(NC(=O)c3cscc3C(=O)NCC)cc2)c1 [6/57]			1000 to 10000 nM	+ (+: ≥1.3-fold to <2-fold)	> 10000 nM
[2H]C([2H])([2H])Oc1cccc(-c2c(F)c(F)c(NC(=O)C3=C(C(=O)O)CCC3)c(F)c2F)c1 [2/10]			< 100 nM	+ (+: ≥1.3-fold to <2-fold)	
[N-]=[N+]=NCCOc1cccc(-c2ccc(NC(=O)C3=C(C(=O)O)CCC3)c(F)c2)c1 [4/1]			< 100 nM	+++ (+++: ≥3-fold)	
[2H]C([2H])([2H])Oc1cccc(-c2ccc(NC(=O)c3cscc3C(=O)NCC)cc2)c1 [6/56]			1000 to 10000 nM	+++ (+++: ≥3-fold)	> 10000 nM
O=C(O)C1=C(C(=O)Nc2c(F)cc(-c3cccc4c3OCO4)cc2F)CCC1 [reference compound]			> 10000 nM		
[2H]c1c([2H])c([2H])c(-c2c(F)c(F)c(NC(=O)c3ccsc3C(N)=O)c(F)c2F)c([2H])c1[2H] [6/45]			100 to 1000 nM		1000 to 10000 nM
[2H]C([2H])([2H])Oc1cccc(-c2cc(F)c(NC(=O)C3=C(C(=O)O)CCC3)c(OC([2H])([2H])[2H])c2)c1 [2/31]			100 to 1000 nM	+ (+: ≥1.3-fold to <2-fold)	
[2H]C([2H])([2H])Oc1cccc(C23CCC(NC(=O)C4=C(C(=O)O)CCC4)(CC2)CC3)c1 [reference compound]			> 10000 nM		> 50000 nM
C#CCOc1cccc(-c2ccc(NC(=O)c3cscc3C(=O)O)cc2)c1 [6/51]			100 to 1000 nM	+++ (+++: ≥3-fold)	1000 to 10000 nM
[2H]C([2H])([2H])Oc1cccc(-c2c(F)cc(NC(=O)c3ccsc3C(=O)O)cc2F)c1 [6/8]	+++ (+++: ≥3-fold)				
COc1cccc(-c2ccc(NC(=O)C3=C(C(=O)NO)CCC3)c(F)c2)c1 [6/10]	++ (++: ≥2-fold to <3-fold)				
[2H]C([2H])([2H])Oc1cccc(-c2cc(F)c(NC(=O)C3=C(C(=O)NOC)CCC3)c(C#N)c2)c1 [2/29]	+ (+: ≥1.3-fold to <2-fold)				
[2H]C([2H])([2H])Oc1cccc(-c2c(F)c(F)c(NC(=O)c3ccsc3C(=O)NCC(F)(F)F)c(F)c2F)c1 [6/44]	+ (+: ≥1.3-fold to <2-fold)				
[2H]C([2H])([2H])Oc1cccc(-c2ccc(NC(=O)C3=C(C(=O)O)CCC3)c3cnccc23)c1 [2/13]			1000 to 10000 nM	+++ (+++: ≥3-fold)	
